Assay results from patent US10035800B2 (AbbVie Inc., priority 2013, dated 2018).

Assays:
[1] = target: T1, BRD4 (BDI_K57-E168) (Homo sapiens, UniProt O60885); experiment: TR-FRET bromodomain binding assay, first bromodomain of BRD4; conditions: 100 nM probe
T1 construct: BD1: amino acids K57-E168; made in house
Outline: (§1)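 Compound dilutions are mixed with His-tagged BRD4 bromodomain (8 nM), europium anti-His antibody (1 nM) and Alexa647 probe (BDI 100 nM; BDII 30 nM) in pH 6.0 buffer containing 2% DMSO. After equilibrating one hour at room temperature, TR-FRET is measured; percent inhibition is fitted to obtain IC50, from which Ki is calculated.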

[2] = target: T2, BRD4 (BDII_E352-M457) (Homo sapiens, UniProt O60885); experiment: TR-FRET bromodomain binding assay, second bromodomain of BRD4; conditions: 30 nM probe
T2 construct: protocol; made in house
Outline: as §1

[3] = tested on: breast cancer cell line MX-1; experiment: MX-1 cell line proliferation assay; assay type: cell-based; conditions: MX-1 cells, 3-day proliferation assay, Cell Titer Glo; read-out: Cellular proliferation: EC50
Outline: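 MX-1 cells at 5000/well, in RPMI 1640 with 10% FBS, were exposed to compounds for 3 days. Final concentrations ranged 3 μM–0.1 nM or 1 μM–0.03 nM, in 3-fold steps. Cell Titer Glo luminescence was normalized to DMSO and fitted sigmoidally for EC50; overall MSR 2.1.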

[4] = TR-FRET assay protocol G (compound 0.92 μM-15 pM)
[5] = TR-FRET assay protocol E (compound 9.19 μM-150 pM)

Row | Ki [1, 4] | Ki [2, 4] | EC50 [3] | Ki [1, 5] | Ki [2, 5] | Compound
1 | 3.39 nM | 3.29 nM | 25.6 nM |  |  | Cn1cc2c3c(c[nH]c3c1=O)CN(c1cncnc1)c1ccc(CS(C)(=O)=O)cc1-2 [Example 248, 10-methyl-7-((methylsulfonyl)methyl)-4-(pyrimidin-5-yl)-3,4-dihydro-1H-1,4,10-triazadibenzo[cd,f]azulen-11(10H)-one]
2 | 17.4 nM | 4.99 nM | 247 nM |  |  | Cc1ccccc1NC(=O)N1Cc2c[nH]c3c(=O)n(C)cc(c23)-c2cc(CS(C)(=O)=O)ccc21 [Example 52, 10-methyl-7-((methylsulfonyl)methyl)-11-oxo-N-(o-tolyl)-10,11-dihydro-1H-1,4,10-triazadibenzo[cd,f]azulene-4(3H)-carboxamide]
3 | 57.8 nM | 12.8 nM | 551 nM |  |  | Cn1cc2c3c(c[nH]c3c1=O)CN(S(=O)(=O)C1CC1)c1ccc(CS(C)(=O)=O)cc1-2 [Example 172, 4-(cyclopropylsulfonyl)-10-methyl-7-((methylsulfonyl)methyl)-3,4-dihydro-1H-1,4,10-triazadibenzo[cd,f]azulen-11(10H)-one]
4 | 2.18 nM | 2.53 nM | 14.1 nM |  |  | COc1ccccc1OC(=O)N1Cc2c[nH]c3c(=O)n(C)cc(c23)-c2cc(CS(C)(=O)=O)ccc21 [Example 95, 2-methoxyphenyl 10-methyl-7-((methylsulfonyl)methyl)-11-oxo-10,11-dihydro-1H-1,4,10-triazadibenzo[cd,f]azulene-4(3H)-carboxylate]
5 | 2.34 nM | 9.19 nM | 21.1 nM |  |  | Cn1cc2c3c(c[nH]c3c1=O)CN(CC(C)(C)CN1CCOCC1)c1ccc(CS(C)(=O)=O)cc1-2 [Example 257, 4-(2,2-dimethyl-3-morpholinopropyl)-10-methyl-7-((methylsulfonyl)methyl)-3,4-dihydro-1H-1,4,10-triazadibenzo[cd,f]azulen-11(10H)-one]
6 | 17.5 nM | 2.33 nM | 627 nM |  |  | Cn1cc2c3c(c[nH]c3c1=O)C(CNC(=O)CN)N(c1ccc(F)cc1F)c1ccc(CS(C)(=O)=O)cc1-2 (stereo not drawn) [Example 139, 2-amino-N-((4-(2,4-difluorophenyl)-10-methyl-7-((methylsulfonyl)methyl)-11-oxo-3,4,10,11-tetrahydro-1H-1,4,10-triazadibenzo[cd,f]azulen-3-yl)methyl)acetamide]
7 | 8.61 nM | 0.6 nM | 51.8 nM |  |  | Cn1cc2c3c(c[nH]c3c1=O)C(CCCO)N(c1ccc(F)cc1F)c1ccc(CS(C)(=O)=O)cc1-2 (stereo not drawn) [Example 142, 4-(2,4-difluorophenyl)-3-(3-hydroxypropyl)-10-methyl-7-((methylsulfonyl)methyl)-3,4-dihydro-1H-1,4,10-triazadibenzo[cd,f]azulen-11(10H)-one]
8 | 49.5 nM | 57.8 nM | > 1000 nM |  |  | CN1CCN(C(=O)C2c3c[nH]c4c(=O)n(C)cc(c34)-c3cc(CS(C)(=O)=O)ccc3N2c2ccc(F)cc2)CC1 (stereo not drawn) [Example 41, 4-(4-fluorophenyl)-10-methyl-3-(4-methylpiperazine-1-carbonyl)-7-((methylsulfonyl)methyl)-3,4-dihydro-1H-1,4,10-triazadibenzo[cd,f]azulen-11(10H)-one]
9 | 57.3 nM | 65.8 nM | 603 nM |  |  | Cn1cc2c3c(c[nH]c3c1=O)C(c1ccccc1)N(c1ccc(F)cc1F)c1ccc(CS(C)(=O)=O)cc1-2 [Example 216, (S)-4-(2,4-difluorophenyl)-10-methyl-7-((methylsulfonyl)methyl)-3-phenyl-3,4-dihydro-1H-1,4,10-triazadibenzo[cd,f]azulen-11(10H)-one]
10 | 7.23 nM | 4.73 nM | 910 nM |  |  | COc1ccc(NC(=O)N2Cc3c[nH]c4c(=O)n(C)cc(c34)-c3cc(CS(C)(=O)=O)ccc32)cc1 [Example 62, N-(4-methoxyphenyl)-10-methyl-7-((methylsulfonyl)methyl)-11-oxo-10,11-dihydro-1H-1,4,10-triazadibenzo[cd,f]azulene-4(3H)-carboxamide]
11 |  |  | 544 nM | 158 nM | 24.5 nM | Cn1cc2c3c(c[nH]c3c1=O)C(/C=C/c1ccc(F)cc1)Nc1ccc(CS(C)(=O)=O)cc1-2 (racemic) [Example 20, (E)-3-(4-fluorostyryl)-10-methyl-7-((methylsulfonyl)methyl)-3,4-dihydro-1H-1,4,10-triazadibenzo[cd,f]azulen-11(10H)-one]
12 | 8.7 nM | 2.71 nM | 7.83 nM |  |  | Cn1cc2c3c(c[nH]c3c1=O)CN(C(=O)C1CC1)c1ccc(CS(C)(=O)=O)cc1-2 [Example 115, 4-(cyclopropanecarbonyl)-10-methyl-7-((methylsulfonyl)methyl)-3,4-dihydro-1H-1,4,10-triazadibenzo[cd,f]azulen-11(10H)-one]
13 | 9.29 nM | 1.4 nM | 204 nM |  |  | CC(=O)OCC(CCC1c2c[nH]c3c(=O)n(C)cc(c23)-c2cc(CS(C)(=O)=O)ccc2N1c1ccc(F)cc1F)OC(C)=O (stereo not drawn) [Example 133, 4-(4-(2,4-difluorophenyl)-10-methyl-7-((methylsulfonyl)methyl)-11-oxo-3,4,10,11-tetrahydro-1H-1,4,10-triazadibenzo[cd,f]azulen-3-yl)butane-1,2-diyl diacetate]
14 | 10.8 nM | 11.1 nM | 48.9 nM |  |  | CCOC(=O)C1c2c[nH]c3c(=O)n(C)cc(c23)-c2cc(CS(C)(=O)=O)ccc2N1c1ccc(F)cc1 [Example 85, (S)-ethyl 4-(4-fluorophenyl)-10-methyl-7-((methylsulfonyl)methyl)-11-oxo-3,4,10,11-tetrahydro-1H-1,4,10-triazadibenzo[cd,f]azulene-3-carboxylate]
15 | 4.84 nM | 7.68 nM | 7.26 nM |  |  | Cn1cc2c3c(c[nH]c3c1=O)CN(CC1CC1)c1ccccc1-2 [Example 13, 4-(cyclopropylmethyl)-10-methyl-3,4-dihydro-1H-1,4,10-triazadibenzo[cd,f]azulen-11(10H)-one]
16 | 6.03 nM | 3.49 nM | 6.02 nM |  |  | Cn1cc2c3c(c[nH]c3c1=O)CN(C(=O)Oc1ccc(F)cc1)c1ccc(CS(C)(=O)=O)cc1-2 [Example 94, 4-fluorophenyl 10-methyl-7-((methylsulfonyl)methyl)-11-oxo-10,11-dihydro-1H-1,4,10-triazadibenzo[cd,f]azulene-4(3H)-carboxylate]
17 | 0.85 nM | 3.2 nM | 27.8 nM |  |  | Cn1cc2c3c(c(C#N)[nH]c3c1=O)CN(c1ccc(Cl)cc1)c1ccccc1-2 [Example 201, 4-(4-chlorophenyl)-10-methyl-11-oxo-3,4,10,11-tetrahydro-1H-1,4,10-triazadibenzo[cd,f]azulene-2-carbonitrile]
18 | 62.1 nM | 4.6 nM | 275 nM |  |  | Cn1cc2c3c(c[nH]c3c1=O)C(Cn1ccccc1=O)N(c1ccc(F)cc1F)c1ccc(CS(C)(=O)=O)cc1-2 (stereo not drawn) [Example 238, 4-(2,4-difluorophenyl)-10-methyl-7-((methylsulfonyl)methyl)-3-((2-oxopyridin-1(2H)-yl)methyl)-3,4-dihydro-1H-1,4,10-triazadibenzo[cd,f]azulen-11(10H)-one]
19 | 7.04 nM | 8.07 nM | > 1000 nM |  |  | Cn1cc2c3c(c(C(=O)O)[nH]c3c1=O)CN(c1ccc(F)cc1F)c1ccc(CS(C)(=O)=O)cc1-2 [Example 263, 4-(2,4-difluorophenyl)-10-methyl-7-((methylsulfonyl)methyl)-11-oxo-3,4,10,11-tetrahydro-1H-1,4,10-triazadibenzo[cd,f]azulene-2-carboxylic acid]
20 | 3.41 nM | 1.15 nM | 10.7 nM |  |  | CCOC(=O)c1[nH]c2c(=O)n(C)cc3c2c1CN(c1ccc(F)cc1F)c1ccc(CS(C)(=O)=O)cc1-3 [Example 208, ethyl 4-(2,4-difluorophenyl)-10-methyl-7-((methylsulfonyl)methyl)-11-oxo-3,4,10,11-tetrahydro-1H-1,4,10-triazadibenzo[cd,f]azulene-2-carboxylate]
21 | 1.01 nM | 3.55 nM | 14.2 nM |  |  | CN1CCN(Cc2[nH]c3c(=O)n(C)cc4c3c2CN(c2ccc(Cl)cc2)c2ccc(CS(C)(=O)=O)cc2-4)CC1 [Example 176, 4-(4-chlorophenyl)-10-methyl-2-((4-methylpiperazin-1-yl)methyl)-7-((methylsulfonyl)methyl)-3,4-dihydro-1H-1,4,10-triazadibenzo[cd,f]azulen-11(10H)-one]
22 | 16.2 nM | 2.5 nM | 250 nM |  |  | Cn1cc2c3c(c[nH]c3c1=O)C(CN)N(c1ccc(F)cc1F)c1ccc(CS(C)(=O)=O)cc1-2 (stereo not drawn) [Example 129, 3-(aminomethyl)-4-(2,4-difluorophenyl)-10-methyl-7-((methylsulfonyl)methyl)-3,4-dihydro-1H-1,4,10-triazadibenzo[cd,f]azulen-11(10H)-one]

Row | Compound | Ki [1, 4] | Ki [2, 4] | EC50 [3] | Ki [1, 5] | Ki [2, 5]
23 | COC1CCN(C(=O)C2c3c[nH]c4c(=O)n(C)cc(c34)-c3cc(CS(C)(=O)=O)ccc3N2c2ccc(F)cc2)CC1 (stereo not drawn) [Example 40] | 29.4 nM | 136 nM | 398 nM |  | 
